Format in all cases: cell-based, mouse
In assay [1] the test system is Aβ secretion from Neuro2a-APPSw cells. Description: Secreted Aβ from Neuro2a-APPSw cells after LXR activation (immunoprecipitation and immunoblotting). (In western blotting, separated proteins are transferred to a membrane and probed.)
Protocol: Neuro2a-APPSw cells were treated with LXR activators (TO or 22(R)-hydroxycholesterol) and in some cases also with RXR activator (9-cis-retinoic acid). Secreted Aβ (sAβ) was detected in medium by immunoprecipitation and immunoblotting. Cellular APP (cAPP) levels were measured by immunoblotting cell lysates. Western blots were scanned and quantified by ImageQuant. The bar graphs show the combined results (means±S.E.) from at least three independent experiments. A, cells were treated with increasing amounts of TO. B, cells were treated with mock transfection (control) or 1 μM TO, μM 9-cis-RA. C, cells were treated with mock transfection or 5 μM 22(R)-hydroxycholesterol (22(R)OHchol), 10 μM 9-cis-RA. #, p<0.05 compared with control. *, p<0.01 compared with control. […]
In experiments with LXR activation, the cells were first induced with activators for 24 h in DMEM, 5% lipoprotein-deficient serum. […] The immunoblots were developed using the ECL system (Pierce) scanned and quantified by ImageQuant (Molecular Dynamics). Quantitation of Aβ40 and Aβ42 was performed using a commercial Aβ enzyme-linked immunosorbent assay kit. […]
The cells were treated with increasing doses of the synthetic LXRα/β activator TO901317 (“TO”), and Aβ secretion into medium was measured by immunoprecipitation and Western blotting (FIG. 1A).
For assay [2] the test system is unchanged. Nature of the assay: Aβ secretion from ABCA1- or mock-transfected Neuro2a-APPSw cells with added apolipoproteins. The following applies: apolipoprotein added for 6 h, compared with ABCA1 without apolipoprotein. The method, then: FIGS. 3A-3C: ABCA1 overexpression inhibits Aβ secretion.
FIG. 4: The effect of apoE isoforms on Aβ secretion.
(§1) Cellular cholesterol mass was also measured.
Because apoE is a major apolipoprotein in the central nervous system and the apoE4 isoform is associated with increased risk of AD (19, 20), the effects of apoE on Aβ formation was also examined. […] Again, the major effect was attributable to ABCA1 expression alone.

The subject of assay [3] is Aβ generation from C99 in Neuro2a cells. Nature of the assay: γ-Secretase cleavage of C99 Myc in Neuro2a cells transfected with ABCA1. Particulars: Neuro2a cells transfected with C99 Myc and ABCA1; apoA-I added; data not shown. The method, then:
FIGS. 5A-5B: ABCA1 overexpression decreases β-cleavage of APPSw and γ-cleavage of the 99-amino acid C-terminal fragment of APP. A, Neuro2a-APPSw cells were transfected with either empty vector or vector containing ABCA1 cDNA. The β-cleavage product C99 was detected by immunoprecipitation of cell lysates with antibody 4G8 followed by immunoblotting with 6E10. Cellular APP (cAPP) level was measured by immunoblotting cell lysates. The data are the means±S.E. for five separate experiments; *, p<0.01 compared with mock (mk) transfected. B, Neuro2a cells were transfected with vector containing either C99 Myc alone or C99 Myc with ABCA1. Aβ was detected as in FIG. 3. Cellular C99 was detected by immunoprecipitation with anti-Myc antibody followed by Western blot with 6E10. The data are shown for three separate experiments conducted in duplicate. #, p<0.05 compared with C99 transfected alone.
Both β and γ-cleavage of APP are required for the generation of Aβ. A series of experiments were carried out to determine which step is affected by ABCA1 overexpression. To measure β-cleavage, the β-secretase cleavage product was immunoprecipitated (C99 ) from cell lysates. There was an 85% decrease of cellular C99 in Neuro2a-APPSw cells transiently transfected with ABCA1 compared with mock transfected control (FIG. 5A). γ-Secretase mediates the final step in Aβ generation (1). […]

In assay [4] the test system is cellular cholesterol efflux, Neuro2a cells. Nature of the assay: Cellular cholesterol efflux from ABCA1-expressing Neuro2a cells. The following applies: expression of ABCA1 and addition of apoA-I (10 μg/ml, 6 h). The protocol: The efflux experiments were performed as described (13). Briefly, Neuro2a cells were labeled with 1 μCi/ml [1.2-^3H(N)]-cholesterol (PerkinElmer Life Sciences) in DMEM containing 5 mM methyl-β-cyclodextrin:cholesterol at a molar ratio of 8:1 for 15 min at 37° C. After washing, the cells were equilibrated in DMEM, 0.2% bovine serum albumin for 30 min and then used for efflux experiments. […] The cells were lysed in 0.1 M sodium hydroxide, 0.1% SDS, and radioactivity was determined by liquid scintillation counting. Efflux was expressed as the percentage of radioactivity in the medium relative to the total radioactivity in cells and medium.
as §1

Assay [5] concerns efflux of cellular phospholipids, Neuro2a cells. Nature of the assay: Cellular phospholipid efflux from ABCA1-expressing Neuro2a cells. The following applies: expression of ABCA1 and addition of apoA-I.

In the case of `O=S(=O)(c1ccccc1)N(CC(F)(F)F)c1ccc(C(O)(C(F)(F)F)C(F)(F)F)cc1` [TO901317], the “reduction in secretion of Aβ into medium” value in assay [1] (1 μM TO, 24 h induction, 4 h medium, immunoprecipitation and Western blotting (FIG. 1A)) is listed as ~50%. Besides, in assay [1] (administration of the LXR activator, data not shown), the “amount of soluble form of APP (APPsα) in medium” value is reported as “not significantly changed”.

Consider “apoA-I: purified human apolipoprotein A-I, from Biodesign”, for which the “further change in Aβ on adding apolipoprotein to ABCA1-expressing cells” value in assay [2] is “only a slight further decrease”. Further, the “further decrease in Aβ generation from C99” value in assay [3] is recorded as “did not provide a further decrease”. Further, the “increase in cellular cholesterol efflux” value in assay [4] is reported as 1.0±0.1 % of total cellular cholesterol. Also, the “increase in efflux of cellular phospholipids” value in assay [5] is given as 1.9 % of total cellular choline-labeled lipids.

Values taken from US20060069076A1, “LXR/RXR-related methods and compositions” (priority 2004, published 2006).
